Laboratory results reported in EP4000606A1, “COMPOUNDS FOR CORONAVIRUS INFECTION TREATMENT AND/OR PREVENTION” (priority 2020, dated 2022).
Read-outs that look alike come from different tables or passages of the source.

Test system: SARS-CoV-2
Assay: microbe, parasite or virus in culture
Format: cell-based
Conditions: for IC50: Severe acute respiratory syndrome coronavirus 2, 120 h
[1] = confluence of SARS-CoV-2 infected VeroE6-EGFP cells after test compound treatment compared to control wells, 5 days

SMILES	Maximum confluence reached (%) (5 days)	further results
CN1CCN(CCCN2c3ccccc3Sc3ccc(C(F)(F)F)cc32)CC1.Cl.Cl [compound 94, 10-[3-(4-Methylpiperazin-1-yl)propyl]-2-(trifluoromethyl)-10H-phenothiazine dihydrochloride]	37.97%	–
C[C@@H]1COCCN1c1cc(=O)n2c(n1)N(Cc1cncc(Cl)c1)[C@H](C(F)(F)F)CC2 [compound 54, (8S)-9-[(5-Chloropyridin-3-yl)methyl]-2-[(3R)-3-methylmorpholin-4-yl]-8-(trifluoromethyl)-6,7,8,9-tetrahydro-4H-pyrimido[1,2-a]pyrimidin-4-one]	–	Maximum confluence reached (%) [1]: 89%
CN(C)c1cccc(-c2c3c(=O)n(-c4ccccc4Cl)[nH]c3cc(=O)n2C)c1 [compound 13, 2-(2-Chlorophenyl)-4-[3-(dimethylamino)phenyl]-5-methyl-1H-pyrazolo[4,3-c]pyridine-3,6(2H,5H)-dione]	101.52%	IC50: 7.57 µM
CN(Cc1cnc2nc(N)nc(N)c2n1)c1ccc(C(=O)N[C@@H](CCC(=O)O)C(=O)O)cc1 [compound 1, N-[4-[N-(2,4-Diaminopteridin-6-ylmethyl)-N-methylamino]benzoyl]-L-glutamic acid]	–	IC50 (half maximal concentration able to recover the cytopathic effect of infection, VeroE6-EGFP cells, 0.01 MOI, 5 days, 8 concentrations, read-out: IC50): 0.05 µM; Maximum confluence reached (%) [1]: 64%
O=C(c1c2ccccc2cc2ccccc12)N1CCC(N2CCC[C@@H](C(=O)N3CCOCC3)C2)CC1 [compound 81, 1-[1'-(Anthracen-9-ylcarbonyl)-1,4'-bipiperidin-3(R)-yl]-1-(4-morpholinyl)methanone]	–	Maximum confluence reached (%) [1]: 51%
CC(C)N1CCN(c2ccc(C(=O)c3c(-c4ccc(O)cc4)sc4cc(O)ccc34)cc2)CC1 [compound 87, 1-[6-Hydroxy-2-(4-hydroxyphenyl)-1-benzothien-3-yl]-1-[4-(4-isopropylpiperazin-1-yl)phenyl]methanone]	41.04%	–
c1cncc(CN2CCC(n3ncc4c(N5CCOCC5)nc(-c5ccc6[nH]ccc6c5)nc43)CC2)c1 [compound 32, 6-(1H-Indol-5-yl)-4-(4-morpholinyl)-1-[1-(pyridin-3-ylmethyl)piperidin-4-yl]-1H-pyrazolo[3,4-d]pyrimidine]	67.69%	–
COc1cc2c(N3CCN(C(=O)Nc4ccc(OC(C)C)cc4)CC3)ncnc2cc1OCCCN1CCCCC1 [compound 35, N-(4-Isopropoxyphenyl)-4-[6-methoxy-7-[3-(1-piperidinyl)propoxy]quinazolin-4-yl]piperazine-1-carboxamide]	80.09%	–
COc1cc2c(NC3CCN(C4CCCCC4)CC3)nc(N3CCCN(C(C)C)CC3)nc2cc1OCCCN1CCCCC1 [compound 59, N-(1-Cyclohexylpiperidin-4-yl)-6-methoxy-7-[3-(1-piperidinyl)propoxy]-2-[4-(propan-2-yl)perhydro-1,4-diazepin-1-yl]quinazolin-4-amine]	80.08%	–
Cc1nc(N)nc(N)c1-c1ccc(Cl)c(Cl)c1 [compound 41, 5-(3,4-Dichlorophenyl)-6-methylpyrimidine-2,4-diamine]	58.02%	–
C/C(=C\c1ccc(C(=O)O)cc1)c1ccc2c(c1)C(C)(C)CCC2(C)C [compound 26, 4-[2-(5,5,8,8-Tetramethyl-5,6,7,8-tetrahydronaphthalen-2-yl)-1(E)-propenyl]benzoic acid]	105.73%	IC50: 33.7 µM
CC(C)(C)C(=O)C(=Cc1cccc([N+](=O)[O-])c1)n1cncn1 [compound 76, 4,4-dimethyl-1-(3-nitrophenyl)-2-(1H-1,2,4-triazol-1-yl)-1-penten-3-one]	–	Maximum confluence reached (%): 50.44%; IC50: 4.33 µM
Cc1cccc(Nc2nc(-c3ccncc3)cs2)c1 [compound 85, N-(3-Methylphenyl)-4-(4-pyridyl)thiazol-2-amine]	47.81%	–
O=C(NCCN1CCC2(CC1)C(=O)NCN2c1cccc(F)c1)c1ccc2ccccc2c1 [compound 56, N-[2-[1-(3-Fluorophenyl)-4-oxo-1,3,8-triazaspiro[4.5]dec-8-yl]ethyl]naphthalen-2-carboxamide]	98.46%	–
